How the values were obtained:
Test in all cases: relative viability (nuclei count vs DMSO), 5 days (fraction); higher = more cells survive
[1] = tested on: A-427
How it was run: (§1)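 Relative viability equals treated-well nuclei counts divided by vehicle-well nuclei counts. Counts came from 4× images of lung cancer cell lines grown in 1536-well plates for 5 days after pin-tool dosing on the day after seeding. Dosing used one drug alone or a fixed anchor-drug dose plus five library-drug doses (not always all listed) in √10 steps, and values are medians of duplicate plates.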

[2] = tested on: EKVX
How it was run: as §1

[3] = tested on: H3255
How it was run: as §1

[4] = tested on: LK-2
How it was run: as §1

[5] = tested on: NCI-H1355
How it was run: as §1

[6] = tested on: NCI-H1650
How it was run: as §1

[7] = tested on: NCI-H1666
How it was run: as §1

[8] = tested on: NCI-H1755
How it was run: as §1

[9] = tested on: NCI-H1944
How it was run: as §1

[10] = tested on: NCI-H2085
How it was run: as §1

[11] = tested on: NCI-H2228
How it was run: as §1

[12] = tested on: NCI-H2347
How it was run: as §1

[13] = tested on: NCI-H3122
How it was run: as §1

[14] = tested on: NCI-H322M
How it was run: as §1

[15] = tested on: NCI-H358
How it was run: as §1

[16] = tested on: NCI-H460
How it was run: as §1

[17] = tested on: NCI-H520
How it was run: as §1

[18] = tested on: NCI-H596
How it was run: as §1

[19] = tested on: NCI-H650
How it was run: as §1

[20] = tested on: NCI-H838
How it was run: as §1

[21] = tested on: SW 1573
How it was run: as §1

SMILES: O=c1[nH]c2ccccc2n1C1CCN(CCCC(c2ccc(F)cc2)c2ccc(F)cc2)CC1 [Pimozide] + CS(=O)(=O)CCNCc1ccc(-c2ccc3ncnc(Nc4ccc(OCc5cccc(F)c5)c(Cl)c4)c3c2)o1 [Lapatinib] (partner 2 µM)
- relative viability ([1]; first compound 0.08 µM): 0.941
- relative viability ([1]; first compound 0.253 µM): 1.03
- relative viability ([1]; first compound 0.8 µM): 1.01
- relative viability ([1]; first compound 2.53 µM): 0.911
- relative viability ([1]; first compound 8 µM): 0.985
- relative viability ([2]; first compound 0.253 µM): 0.177
- relative viability ([2]; first compound 0.8 µM): 0.221
- relative viability ([2]; first compound 2.53 µM): 0.216
- relative viability ([2]; first compound 8 µM): 0.464
- relative viability ([3]; first compound 0.253 µM): 0.281
- relative viability ([3]; first compound 0.8 µM): 0.266
- relative viability ([3]; first compound 2.53 µM): 0.229
- relative viability ([3]; first compound 8 µM): 0.254
- relative viability ([4]; first compound 0.08 µM): 0.851
- relative viability ([4]; first compound 0.253 µM): 0.842
- relative viability ([4]; first compound 0.8 µM): 0.731
- relative viability ([4]; first compound 2.53 µM): 0.78
- relative viability ([4]; first compound 8 µM): 1.13
- relative viability ([5]; first compound 0.08 µM): 1.02
- relative viability ([5]; first compound 0.253 µM): 1.09
- relative viability ([5]; first compound 0.8 µM): 0.933
- relative viability ([5]; first compound 2.53 µM): 0.939
- relative viability ([5]; first compound 8 µM): 0.982
- relative viability ([6]; first compound 0.08 µM): 0.711
- relative viability ([6]; first compound 0.253 µM): 0.809
- relative viability ([6]; first compound 0.8 µM): 0.451
- relative viability ([6]; first compound 2.53 µM): 0.733
- relative viability ([6]; first compound 8 µM): 0.146
- relative viability ([7]; first compound 0.08 µM): 0.592
- relative viability ([7]; first compound 0.253 µM): 0.716
- relative viability ([7]; first compound 0.8 µM): 0.621
- relative viability ([7]; first compound 2.53 µM): 0.365
- relative viability ([7]; first compound 8 µM): 0.464
- relative viability ([8]; first compound 0.08 µM): 1.01
- relative viability ([8]; first compound 0.253 µM): 1.01
- relative viability ([8]; first compound 0.8 µM): 0.951
- relative viability ([8]; first compound 2.53 µM): 1.03
- relative viability ([8]; first compound 8 µM): 0.849
- relative viability ([9]; first compound 0.08 µM): 0.802
- relative viability ([9]; first compound 0.253 µM): 0.76
- relative viability ([9]; first compound 0.8 µM): 0.62
- relative viability ([9]; first compound 2.53 µM): 0.772
- relative viability ([9]; first compound 8 µM): 0.794
- relative viability ([10]; first compound 0.08 µM): 0.786
- relative viability ([10]; first compound 0.253 µM): 0.711
- relative viability ([10]; first compound 0.8 µM): 0.704
- relative viability ([10]; first compound 2.53 µM): 0.704
- relative viability ([10]; first compound 8 µM): 0.698
- relative viability ([11]; first compound 0.08 µM): 1.18
- relative viability ([11]; first compound 0.253 µM): 1.2
- relative viability ([11]; first compound 0.8 µM): 0.924
- relative viability ([11]; first compound 2.53 µM): 0.924
- relative viability ([11]; first compound 8 µM): 0.669
- relative viability ([12]; first compound 0.08 µM): 0.834
- relative viability ([12]; first compound 0.253 µM): 0.92
- relative viability ([12]; first compound 0.8 µM): 0.771
- relative viability ([12]; first compound 2.53 µM): 0.926
- relative viability ([12]; first compound 8 µM): 0.978
- relative viability ([13]; first compound 0.08 µM): 1
- relative viability ([13]; first compound 0.253 µM): 1
- relative viability ([13]; first compound 0.8 µM): 0.813
- relative viability ([13]; first compound 2.53 µM): 1
- relative viability ([13]; first compound 8 µM): 1.01
- relative viability ([14]; first compound 0.253 µM): 0.56
- relative viability ([14]; first compound 0.8 µM): 0.584
- relative viability ([14]; first compound 2.53 µM): 0.635
- relative viability ([14]; first compound 8 µM): 0.525
- relative viability ([15]; first compound 0.08 µM): 0.506
- relative viability ([15]; first compound 0.253 µM): 0.488
- relative viability ([15]; first compound 0.8 µM): 0.433
- relative viability ([15]; first compound 2.53 µM): 0.477
- relative viability ([15]; first compound 8 µM): 0.4
- relative viability ([16]; first compound 0.08 µM): 1.06
- relative viability ([16]; first compound 0.253 µM): 0.859
- relative viability ([16]; first compound 0.8 µM): 0.949
- relative viability ([16]; first compound 2.53 µM): 0.856
- relative viability ([16]; first compound 8 µM): 0.826
- relative viability ([17]; first compound 0.08 µM): 0.863
- relative viability ([17]; first compound 0.253 µM): 0.922
- relative viability ([17]; first compound 0.8 µM): 0.621
- relative viability ([17]; first compound 2.53 µM): 0.821
- relative viability ([17]; first compound 8 µM): 0.776
- relative viability ([18]; first compound 0.08 µM): 1
- relative viability ([18]; first compound 0.253 µM): 1.15
- relative viability ([18]; first compound 0.8 µM): 1.16
- relative viability ([18]; first compound 2.53 µM): 1.01
- relative viability ([18]; first compound 8 µM): 0.87
- relative viability ([19]; first compound 0.08 µM): 1.03
- relative viability ([19]; first compound 0.253 µM): 0.861
- relative viability ([19]; first compound 0.8 µM): 0.694
- relative viability ([19]; first compound 2.53 µM): 0.716
- relative viability ([19]; first compound 8 µM): 0.835
- relative viability ([20]; first compound 0.08 µM): 1.18
- relative viability ([20]; first compound 0.253 µM): 1.07
- relative viability ([20]; first compound 0.8 µM): 0.954
- relative viability ([20]; first compound 2.53 µM): 0.822
- relative viability ([20]; first compound 8 µM): 0.829
- relative viability ([21]; first compound 0.08 µM): 1.11
- relative viability ([21]; first compound 0.253 µM): 1.12
- relative viability ([21]; first compound 0.8 µM): 1.12
- relative viability ([21]; first compound 2.53 µM): 1.16
- relative viability ([21]; first compound 8 µM): 1.11

Reference: the supplement of paper PMC10307832
